# Like-named read-outs stand apart in the source and are kept apart here.
# Legend:
# human transporter OAT3 = molecular target: T1, human transporter OAT3 (Homo sapiens, UniProt Q8TCC7); experiment: Further OAT3 uptake inhibition assay (Table 2); type: cell-based; details: compound 0.03-10 μM
# T1 construct: expressed in transfected cells; host or cells: MDCK-II
# T1 sequence (Q8TCC7 1-542): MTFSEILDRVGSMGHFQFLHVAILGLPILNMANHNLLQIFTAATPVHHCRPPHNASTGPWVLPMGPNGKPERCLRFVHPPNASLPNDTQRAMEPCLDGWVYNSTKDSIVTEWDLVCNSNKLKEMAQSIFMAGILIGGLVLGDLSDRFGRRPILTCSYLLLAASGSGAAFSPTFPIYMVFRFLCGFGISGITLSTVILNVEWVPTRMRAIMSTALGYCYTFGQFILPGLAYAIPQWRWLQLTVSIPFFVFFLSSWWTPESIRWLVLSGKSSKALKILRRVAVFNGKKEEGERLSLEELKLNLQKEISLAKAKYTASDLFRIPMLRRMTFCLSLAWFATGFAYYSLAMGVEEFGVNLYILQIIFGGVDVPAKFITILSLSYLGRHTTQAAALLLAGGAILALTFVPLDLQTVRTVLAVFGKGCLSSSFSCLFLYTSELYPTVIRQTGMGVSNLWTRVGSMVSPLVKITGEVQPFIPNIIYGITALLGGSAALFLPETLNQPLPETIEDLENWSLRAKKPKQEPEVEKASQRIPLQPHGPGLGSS
# Protocol: (§1) In a further assay, the effects of several other compounds (including compounds 2, 3, and 4) were assessed against OAT3. The assay was carried out using a similar procedure as described above, using para-aminohippurate (PAH) and estrone-3-sulfate (E3S) as the substrates for measuring OAT3-mediated transport. […] MDCK-II cells were grown in 96-well cell culture plates, and the cell plates are maintained at 37° C. in 5% CO2 atmosphere prior to initiation of the transport experiment. MDCK-II cells were maintained in DMEM with low glucose and 10% FBS. Cells passages up to 40 are seeded at 60K±10K cells/well on 96-well, transwell membrane plates approximately 24 hours before transfection. Transport assays were carried out approximately 48 hours after transfection. Radio-labeled para-aminohippurate ([3H]-PAH) and estrone-3-sulfate (E3S) were used as substrates for measuring OAT3-mediated transport, where the transport of the substrate was determined by radiometric detection. Probenecid was used as a reference inhibitor. Transport study samples were run in triplicate.
# (§2) For uptake assays, the net transporter-mediated uptake rate (V) of the substrate by each SLC transporter was calculated as follows:
# (§3) Transporter-mediated uptake rate(pmol/min/cm^2)=((Cellular accumulation in cells expressing the transporter)−(Mean cellular accumulation in control cells))/Incubation time.
# (§4) Percent inhibition was calculated by dividing the transporter-mediated uptake rate in presence of the test article or the reference inhibitor by the transporter-mediated uptake rate in presence of vehicle control:
# (§5) Percent inhibition=100−(100×(transporter-mediated uptake rate)with inhibitor/(transporter-mediated uptake rate)vehicle control)
# (§6) For uptake assays, statistical analyses using an unpaired t test was performed between transporter-mediated uptake rate or ATP-dependent transport rate of probe substrate with vehicle control and the inhibitor. A p value of <0.05 was considered statistically significant.
# (§7) Table 2 summarizes the inhibitory activity of these compounds against OAT3 in the uptake of probe substrate PAH (p-aminohippurate) or E3S (estrone-3-sulfate). The percent inhibition values were determined by testing compounds at a single concentration of 1 μM with a PAH concentration of 10 μM. Data represent the mean and standard deviation of triplicate samples. The IC50 values were calculated by means of a concentration response curve with a compound concentration range of 0.03-10 μM and a probe substrate concentration of 10 μM PAH or 0.1 μM E3S. The percent inhibition at the various concentrations was run in triplicate and the IC50 value was determined by non-linear regression using GraphPad Prism.
# OAT3 = molecular target: T2, OAT3 (Homo sapiens, UniProt Q8TCC7); experiment: Further OAT3 uptake inhibition assay (Table 2); type: cell-based; details: human, MDCK-II cells expressing human OAT3, probe 10 μM PAH (p-aminohippurate); compound 1 μM; PAH 10 μM; mean and SD of triplicate
# T2 construct: expressed in transfected cells; host or cells: MDCK-II
# T2 sequence (Q8TCC7 1-542): T1 sequence (Q8TCC7 1-542)
# Protocol: as §1, §2, §3, §4, §5, §6, §7
# [1] = 0.1 μM E3S, read-out: OAT3 inhibition substrate = E3S (IC50)
# [2] = 10 μM PAH, read-out: OAT3 inhibition substrate = PAH (IC50)
IC50 (human transporter OAT3; [1]),IC50 (human transporter OAT3; [2]),inhibition at 1 μM (OAT3),Compound
1.9 µM,1.36 µM,48%,"O=S(=O)(c1ccc(-n2cn[nH]c2=S)c(N2CCOCC2)c1)c1ccc(Cl)c(C(F)(F)F)c1 [Compound 2, 4-(4-((4-chloro-3-(trifluoromethyl)phenyl)sulfonyl)-2-morpholinophenyl)-2,4-dihydro-3H-1,2,4-triazole-3-thione]"
,,33.1%,"O=S(=O)(c1ccccc1)c1ccc(-n2cn[nH]c2=S)cc1 [Compound 3, 4-(4-(phenylsulfonyl)phenyl)-2,4-dihydro-3H-1,2,4-triazole-3-thione]"
,,76.3%,"O=S(=O)(c1ccc(Cl)cc1)c1ccc(-n2cn[nH]c2=S)cc1 [Compound 4, 4-(4-((4-chlorophenyl)sulfonyl)phenyl)-2,4-dihydro-3H-1,2,4-triazole-3-thione]"
,,86.5%,"Cc1cc(S(=O)(=O)c2ccc(-n3cn[nH]c3=S)cc2)ccc1Cl [Compound 5, 4-(4-((4-chloro-3-methylphenyl)sulfonyl)phenyl)-2,4-dihydro-3H-1,2,4-triazole-3-thione]"
,,58.6%,"O=S(=O)(c1ccc(-n2cn[nH]c2=S)cc1)c1cccc(C(F)(F)F)c1 [Compound 11, 4-(4-((3-(trifluoromethyl)phenyl)sulfonyl)phenyl)-2,4-dihydro-3H-1,2,4-triazole-3-thione]"
,,48.4%,"COc1cccc(S(=O)(=O)c2ccc(-n3cn[nH]c3=S)cc2)c1 [Compound 12, 4-(4-((3-methoxyphenyl)sulfonyl)phenyl)-2,4-dihydro-3H-1,2,4-triazole-3-thione]"
,,60.1%,"CN(C)c1cccc(S(=O)(=O)c2ccc(-n3cn[nH]c3=S)cc2)c1 [Compound 15, 4-(4-((3-(dimethylamino)phenyl)sulfonyl)phenyl)-2,4-dihydro-3H-1,2,4-triazole-3-thione]"
,,43%,"O=S(=O)(c1ccc(-n2cn[nH]c2=S)c(N2CCCCC2)c1)c1ccc(Cl)c(C(F)(F)F)c1 [Compound 19, 4-(4-((4-chloro-3-(trifluoromethyl)phenyl)sulfonyl)-2-(piperidin-1-yl)phenyl)-2,4-dihydro-3H-1,2,4-triazole-3-thione]"
,,17.2%,"CN1CCN(c2cc(S(=O)(=O)c3ccc(Cl)c(C(F)(F)F)c3)ccc2-n2cn[nH]c2=S)CC1 [Compound 20, 4-(4-((4-chloro-3-(trifluoromethyl)phenyl)sulfonyl)-2-(4-methylpiperazin-1-yl)phenyl)-2,4-dihydro-3H-1,2,4-triazole-3-thione]"
,,48.2%,"CCN(CC)c1cc(S(=O)(=O)c2ccc(Cl)c(C(F)(F)F)c2)ccc1-n1cn[nH]c1=S [Compound 21, 4-(4-((4-chloro-3-(trifluoromethyl)phenyl)sulfonyl)-2-(diethylamino)phenyl)-2,4-dihydro-3H-1,2,4-triazole-3-thione]"
,,79.5%,"CCOCCOc1cc(S(=O)(=O)c2ccc(Cl)c(C(F)(F)F)c2)ccc1-n1cn[nH]c1=S [Compound 22, 4-(4-((4-chloro-3-(trifluoromethyl)phenyl)sulfonyl)-2-(2-ethoxyethoxy)phenyl)-2,4-dihydro-3H-1,2,4-triazole-3-thione]"
8.63 µM,7.67 µM,9.78%,"CSc1nncn1-c1ccc(S(=O)(=O)c2ccc(Cl)c(C(F)(F)F)c2)cc1 [Compound 26, 4-(4-((4-chloro-3-(trifluoromethyl)phenyl)sulfonyl)phenyl)-3-(methylthio)-4H-1,2,4-triazole]"
,,86.3%,"FC(F)(F)c1cc(Oc2ccc(-n3cn[nH]c3=S)cc2)ccc1Cl [Compound 30, 4-(4-(4-chloro-3-(trifluoromethyl)phenoxy)phenyl)-2,4-dihydro-3H-1,2,4-triazole-3-thione]"
,,-1.05%,"O=S(=O)(c1ccc(-n2cc[nH]c2=S)cc1)c1ccc(Cl)c(C(F)(F)F)c1 [Compound 31, 1-(4-(4-chloro-3-(trifluoromethyl)phenylsulfonyl)phenyl)-1H-imidazole-2(3H)-thione]"
,,-9.18%,"O=c1[nH]ccn1-c1ccc(S(=O)(=O)c2ccc(Cl)c(C(F)(F)F)c2)cc1 [Compound 32, 1-(4-((4-chloro-3-(trifluoromethyl)phenyl)sulfonyl)phenyl)-1,3-dihydro-2H-imidazol-2-one]"
,,94.1%,"O=S(=O)(Nc1ccc(Cl)c(C(F)(F)F)c1)c1ccc(-n2cn[nH]c2=S)cc1 [Compound 33, N-(4-chloro-3-(trifluoromethyl)phenyl)-4-(5-thioxo-1H-1,2,4-triazol-4(5H)-yl)benzenesulfonamide]"
> 30 µM,> 30 µM,,CS(=O)(=O)N1CCN(Cc2nnc(Nc3ccc(S(=O)(=O)c4ccc(Cl)cc4)cc3)s2)CC1 [Compound X1]
> 30 µM,> 30 µM,,Nc1ncc(-c2cc(N3CCOCC3)cc(S(=O)(=O)c3ccccc3)c2)cn1 [Compound X2]

# From patent publication US20210290597A1, “METHOD OF TREATING A CONDITION ASSOCIATED WITH NEURODEGENERATION USING INHIBITORS OF OAT3” (Neuropore Therapies, Inc., priority 2018, published 2021)
